Experimental data taken from patent publication US10023570B2 (Array BioPharma, Inc., priority 2015, dated 2018).
Structures can show the parent of a compound that is named as a salt. Where two headings read alike, the source gives them in different places.

Columns and labels:
[1] = molecular target: human KDR protein in HEK-293 cells (Homo sapiens (Human), UniProt P35968); test: KDR Cell Assay (phospho-KDR in HEK-293 cells expressing inducible KDR); type: cell-based; conditions: pKDR Cell HEK 10% FBS IC50, HEK-293 cells expressing inducible KDR, VEGF stimulated, 10% FBS
human KDR protein in HEK-293 cells, sequence (P35968 20-1356): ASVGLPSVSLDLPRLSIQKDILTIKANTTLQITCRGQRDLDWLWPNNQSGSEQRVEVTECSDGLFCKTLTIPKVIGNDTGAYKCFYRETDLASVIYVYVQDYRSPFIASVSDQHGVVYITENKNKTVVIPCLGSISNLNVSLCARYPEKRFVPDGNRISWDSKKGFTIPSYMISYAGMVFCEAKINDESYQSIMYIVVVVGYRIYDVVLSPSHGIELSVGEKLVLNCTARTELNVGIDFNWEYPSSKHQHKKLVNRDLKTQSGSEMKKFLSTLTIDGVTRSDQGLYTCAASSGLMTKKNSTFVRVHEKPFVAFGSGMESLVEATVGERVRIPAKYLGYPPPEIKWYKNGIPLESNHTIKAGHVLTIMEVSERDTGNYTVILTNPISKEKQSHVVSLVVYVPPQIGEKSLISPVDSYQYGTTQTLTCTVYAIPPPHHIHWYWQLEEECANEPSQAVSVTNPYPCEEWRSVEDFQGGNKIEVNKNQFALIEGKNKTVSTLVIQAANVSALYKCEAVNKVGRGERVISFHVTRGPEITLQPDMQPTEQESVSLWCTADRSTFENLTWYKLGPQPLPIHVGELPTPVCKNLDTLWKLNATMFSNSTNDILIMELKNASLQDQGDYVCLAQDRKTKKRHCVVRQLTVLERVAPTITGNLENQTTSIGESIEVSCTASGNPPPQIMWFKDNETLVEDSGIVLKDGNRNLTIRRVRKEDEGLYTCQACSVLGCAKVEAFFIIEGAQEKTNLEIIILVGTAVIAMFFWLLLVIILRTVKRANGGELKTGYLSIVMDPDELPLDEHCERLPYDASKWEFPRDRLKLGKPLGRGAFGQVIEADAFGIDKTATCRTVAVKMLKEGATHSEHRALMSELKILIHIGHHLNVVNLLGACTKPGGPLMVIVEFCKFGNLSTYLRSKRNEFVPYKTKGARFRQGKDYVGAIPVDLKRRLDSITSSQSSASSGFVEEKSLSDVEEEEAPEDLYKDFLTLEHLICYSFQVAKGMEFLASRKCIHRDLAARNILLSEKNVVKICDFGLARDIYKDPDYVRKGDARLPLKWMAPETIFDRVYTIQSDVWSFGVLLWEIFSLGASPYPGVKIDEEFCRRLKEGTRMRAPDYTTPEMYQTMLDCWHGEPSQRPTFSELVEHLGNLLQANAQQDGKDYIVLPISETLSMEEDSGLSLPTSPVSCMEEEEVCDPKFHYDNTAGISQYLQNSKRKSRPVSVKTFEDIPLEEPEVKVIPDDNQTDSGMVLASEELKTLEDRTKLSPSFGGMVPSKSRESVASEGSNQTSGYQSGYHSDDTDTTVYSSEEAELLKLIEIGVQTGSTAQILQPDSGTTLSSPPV
Method in brief: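 HEK-293 cells with inducible human KDR were treated with compound for 1 h in DMEM (0.25% DMSO final), then lysed. Phospho-KDR was quantified by Meso Scale immunoassay, expressed as percent of control, and IC50 taken where a 4-parameter logistic fit crossed 50 POC.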

[2] = molecular target: Kif5b-RET fusion protein in HEK-293 cells (Homo sapiens, UniProt P07949); test: cell-based
Kif5b-RET fusion protein in HEK-293 cells, sequence (P07949 29-1114 limits assumed): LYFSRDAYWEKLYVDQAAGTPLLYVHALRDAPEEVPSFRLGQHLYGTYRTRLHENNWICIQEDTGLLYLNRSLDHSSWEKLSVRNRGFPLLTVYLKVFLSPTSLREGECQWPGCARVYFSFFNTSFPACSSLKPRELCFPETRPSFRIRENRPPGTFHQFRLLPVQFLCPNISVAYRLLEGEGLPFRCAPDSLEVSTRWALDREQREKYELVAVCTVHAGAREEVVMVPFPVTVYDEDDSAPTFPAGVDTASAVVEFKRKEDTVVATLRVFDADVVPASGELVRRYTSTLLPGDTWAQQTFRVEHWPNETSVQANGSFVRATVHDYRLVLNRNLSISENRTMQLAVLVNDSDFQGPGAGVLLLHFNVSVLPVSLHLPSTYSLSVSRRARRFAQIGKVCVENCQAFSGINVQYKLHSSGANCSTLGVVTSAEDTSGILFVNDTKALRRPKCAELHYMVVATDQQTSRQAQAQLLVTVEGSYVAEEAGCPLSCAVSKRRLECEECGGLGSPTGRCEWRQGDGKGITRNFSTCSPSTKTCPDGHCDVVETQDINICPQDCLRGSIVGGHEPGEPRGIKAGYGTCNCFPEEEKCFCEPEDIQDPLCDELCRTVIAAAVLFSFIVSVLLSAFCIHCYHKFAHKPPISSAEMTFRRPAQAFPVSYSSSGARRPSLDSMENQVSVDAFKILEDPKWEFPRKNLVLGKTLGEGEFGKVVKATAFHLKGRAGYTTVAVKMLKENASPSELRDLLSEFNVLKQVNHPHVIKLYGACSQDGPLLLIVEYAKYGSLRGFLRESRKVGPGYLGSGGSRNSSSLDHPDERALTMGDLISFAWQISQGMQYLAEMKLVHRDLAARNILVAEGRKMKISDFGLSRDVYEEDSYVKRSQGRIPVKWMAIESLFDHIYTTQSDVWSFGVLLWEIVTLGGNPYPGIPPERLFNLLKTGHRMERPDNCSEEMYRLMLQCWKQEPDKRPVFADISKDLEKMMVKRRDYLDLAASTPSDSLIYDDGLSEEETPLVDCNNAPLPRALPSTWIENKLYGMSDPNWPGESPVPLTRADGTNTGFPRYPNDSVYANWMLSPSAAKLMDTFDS
Procedure: The cellular potency of a compound inhibiting RET kinase was determined in HEK-293 cells expressing a Kif5b-RET fusion protein. Briefly, HEK-293 cells expressing a Kif5b-RET fusion protein were plated at 50K cells/well in 96 well poly-D-Lysine coated plates the day prior to the assay. The cells were incubated for 1 hour with test compound in DMEM (Dulbecco's Modified Eagle Medium) at a final DMSO concentration of 0.5%. […] After 1 hour the media was removed, the cells were fixed with 3.8% formaldehyde for 20 min, washed with PBS, and permeabilized for 10 min with 100% methanol. […] All antibodies were diluted in LI-COR Block containing 0.05% Tween. The plates were washed with PBS-0.05% Tween20, 100 μL PBS was added to each well, and the plates were read on a LI-COR Aerius fluorescent plate reader. The phospho-RET signal was normalized to the GAPDH signal. […] The IC50 value is the point where the curve crosses 50 POC.

[3] = molecular target: N-terminal GST tagged recombinant human RET cytoplasmic domain (aa 658-end), wild type RET kinase (Homo sapiens (Human), UniProt P07949); test: RET Enzyme Assay (HTRF KinEASE-TK), wild type RET; type: biochemical
N-terminal GST tagged recombinant human RET cytoplasmic domain (aa 658-end), wild type RET kinase, sequence (P07949 658-1114): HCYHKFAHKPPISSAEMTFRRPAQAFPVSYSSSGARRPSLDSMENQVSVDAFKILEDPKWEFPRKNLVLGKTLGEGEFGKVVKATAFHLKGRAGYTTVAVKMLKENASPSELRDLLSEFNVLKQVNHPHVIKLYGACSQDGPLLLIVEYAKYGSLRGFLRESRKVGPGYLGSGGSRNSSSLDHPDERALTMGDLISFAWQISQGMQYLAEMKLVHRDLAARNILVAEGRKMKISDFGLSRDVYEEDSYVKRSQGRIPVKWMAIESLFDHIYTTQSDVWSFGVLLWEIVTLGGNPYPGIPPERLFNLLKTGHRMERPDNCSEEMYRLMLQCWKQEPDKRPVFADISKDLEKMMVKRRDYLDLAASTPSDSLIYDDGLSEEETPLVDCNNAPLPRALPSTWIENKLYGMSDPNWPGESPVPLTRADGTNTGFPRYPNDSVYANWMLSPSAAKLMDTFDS

[4] = HEK-293 cells expressing Kif5b-RET, phospho-RET(Tyr1062), read-out: KIF5B-RET pTYR1062 Cell IC50
[5] = read-out: KIF5B-RET pTYR1062 Cell IC50
[6] = HEK-293 cells expressing Kif5b-RET, read-out: KIF5B-RET pTYR1062 Cell IC50

SMILES | IC50 [1] [nM] | IC50 [2] [nM] | IC50 ([3]; wild type RET, 1 mM ATP) [nM] | IC50 [2, 4] [nM] | IC50 [3] [nM] | IC50 [2, 5] [nM] | IC50 [2, 6] [nM]
C[C@H](O)[C@@H](C)N1CCN(c2ccc(-c3cc(-c4cnn(C)c4)cn4ncc(C#N)c34)cn2)CC1 (racemic) [Example 165, rac-4-(6-(4-((2R*,3S*)-3-hydroxybutan-2-yl)piperazin-1-yl)pyridin-3-yl)-6-(1-methyl-1H-pyrazol-4-yl)pyrazolo[1,5-a]pyridine-3-cartonitrile] | 2020 | 28.9 | 24.8 | – | – | – | –
Cn1cc(-c2cc(-c3ccc(N4CCNCC4)nc3)c3c(C#N)cnn3c2)cn1 [Example 2, 6-(1-methyl-1H-pyrazol-4-yl)-4-(6-(piperazin-1-yl)pyridin-3-yl)pyrazolo[1,5-a]pyridine-3-carbonitrile dihydrochloride] | 1080 | – | – | 111 | 19.6 | – | –
Cn1cc(-c2cc(-c3ccc(N4CCN(C(=O)CN(C(=O)OC(C)(C)C)C(C)(C)C)CC4)nc3)c3c(C#N)cnn3c2)cn1 [Example 18, tert-butyl tert-butyl(2-(4-(5-(3-cyano-6-(1-methyl-1H-pyrazol-4-yl)pyrazolo[1,5-a]pyridin-4-yl)pyridin-2-yl)piperazin-1-yl)-2-oxoethyl)carbamate] | 229 | – | 30.6 | 19.8 | – | – | –
Cn1cc(-c2cc(-c3ccc(N4CCN(C(=O)CNC(C)(C)C)CC4)nc3)c3c(C#N)cnn3c2)cn1 [Example 22, 4-(6-(4-(2-(tert-butylamino)acetyl)piperazin-1-yl)pyridin-3-yl)-6-(1-methyl-1H-pyrazol-4-yl)pyrazolo[1,5-a]pyridine-3-carbonitrile dihydrochloride] | 630 | – | 14.8 | – | – | 22.5 | –
C[C@H](O)C(=O)N1CCN(c2ccc(-c3cc(-c4cnn(C)c4)cn4ncc(C#N)c34)cn2)CC1 [Example 30, (S)-4-(6-(4-(2-hydroxypropanoyl)piperazin-1-yl)pyridin-3-yl)-6-(1-methyl-1H-pyrazol-4-yl)pyrazolo[1,5-a]pyridine-3-carbonitrile] | 921 | – | 22.1 | 124 | – | – | –
Cn1cc(-c2cc(-c3ccc(N4CCN(C(=O)C(C)(C)O)CC4)nc3)c3c(C#N)cnn3c2)cn1 [Example 31, 4-(6-(4-(2-hydroxy-2-methylpropanoyl)piperazin-1-yl)pyridin-3-yl)-6-(1-methyl-1H-pyrazol-4-yl)pyrazolo[1,5-a]pyridine-3-carbonitrile] | 2550 | – | 36.7 | 76.1 | – | – | –
C[C@@H](O)C(=O)N1CCN(c2ccc(-c3cc(-c4cnn(C)c4)cn4ncc(C#N)c34)cn2)CC1 [Example 32, (R)-4-(6-(4-(2-hydroxypropanoyl)piperazin-1-yl)pyridin-3-yl)-6-(1-methyl-1H-pyrazol-4-yl)pyrazolo[1,5-a]pyridine-3-carbonitrile] | 749 | – | 23.9 | 108 | – | – | –
Cn1cc(-c2cc(-c3ccc(N4CCN(C(=O)C(C)(C)C)CC4)nc3)c3c(C#N)cnn3c2)cn1 [Example 34, 6-(1-methyl-1H-pyrazol-4-yl)-4-(6-(4-pivaloylpiperazin-1-yl)pyridin-3-yl)pyrazolo[1,5-a]pyridine-3-carbonitrile 2,2,2-trifluoroacetate] | 3040 | – | 34.8 | – | – | 61.2 | –
COCC(=O)N1CCN(c2ccc(-c3cc(-c4cnn(C)c4)cn4ncc(C#N)c34)cn2)CC1 [Example 40, 4-(6-(4-(2-methoxyacetyl)piperazin-1-yl)pyridin-3-yl)-6-(1-methyl-1H-pyrazol-4-yl)pyrazolo[1,5-a]pyridine-3-carbonitrile 2,2,2-trifluoroacetate] | 221 | – | 13.7 | – | – | 11.2 | –
CC(C)C[C@@H](O)C(=O)N1CCN(c2ccc(-c3cc(-c4cnn(C)c4)cn4ncc(C#N)c34)cn2)CC1 [Example 53, (R)-4-(6-(4-(2-hydroxy-4-methylpentanoyl)piperazin-1-yl)pyridin-3-yl)-6-(1-methyl-1H-pyrazol-4-yl)pyrazolo[1,5-a]pyridine-3-carbonitrile] | 305 | – | 4.4 | 9.9 | – | – | –
COc1ccc(CN2CCN(c3ccc(-c4cc(-c5cnn(CCS(=O)(=O)C(C)C)c5)cn5ncc(C#N)c45)cn3)CC2)cn1 [Example 703, 6-(1-(2-(isopropylsulfonyl)ethyl)-1H-pyrazol-4-yl)-4-(6-(4-((6-methoxypyridin-3-yl)methyl)piperazin-1-yl)pyridin-3-yl)pyrazolo[1,5-a]pyridine-3-carbonitrile] | – | – | 16.4 | – | – | – | 9.8
COc1ccc(CN2CCN(c3ccc(-c4cc(-c5cnn(CCOC(C)C)c5)cn5ncc(C#N)c45)cn3)CC2)cn1 [Example 704, 6-(1-(2-isopropoxyethyl)-1H-pyrazol-4-yl)-4-(6-(4-((6-methoxypyridin-3-yl)methyl)piperazin-1-yl)pyridin-3-yl)pyrazolo[1,5-a]pyridine-3-carbonitrile] | – | 8.3 | 30.1 | – | – | – | –
COc1ccc(CN2CCN(c3ccc(-c4cc(-c5cnn(CCC(=O)N(C)C)c5)cn5ncc(C#N)c45)cn3)CC2)cn1 [Example 706, 3-(4-(3-cyano-4-(6-(4-((6-methoxypyridin-3-yl)methyl)piperazin-1-yl)pyridin-3-yl)pyrazolo[1,5-a]pyridin-6-yl)-1H-pyrazol-1-yl)-N,N-dimethylpropanamide] | – | – | 18.3 | – | – | – | 6.4
COc1ccc(CN2CCN(c3ccc(-c4cc(-c5cnn(CC(C)OC)c5)cn5ncc(C#N)c45)cn3)CC2)cn1 (stereo not shown) [Example 709, 6-(1-(2-methoxypropyl)-1H-pyrazol-4-yl)-4-(6-(4-((6-methoxypyridin-3-yl)methyl)piperazin-1-yl)pyridin-3-yl)pyrazolo[1,5-a]pyridine-3-carbonitrile] | – | – | 26.2 | – | – | – | 9.3
COc1ccc(CN2CCN(c3ccc(-c4cc(-c5cnn(CC(=O)N(C)C)c5)cn5ncc(C#N)c45)cn3)CC2)cn1 [Example 710, 2-(4-(3-cyano-4-(6-(4-((6-methoxypyridin-3-yl)methyl)piperazin-l-yl)pyridin-3-yl)pyrazolo[1,5-a]pyridin-6-yl)-1H-pyrazol-1-yl)-N,N-dimethylacetamide] | – | – | 20 | – | – | – | 12.6
COc1ccc(CN2CCN(c3ncc(-c4cc(-c5cnn(C)c5)cn5ncc(C#N)c45)cc3F)CC2)cn1 [Example 736, 4-(5-fluoro-6-(4-((6-methoxypyridin-3-yl)methyl)piperazin-1-yl)pyridin-3-yl)-6-(1-methyl-1H-pyrazol-4-yl)pyrazolo[1,5-a]pyridine-3-carbonitrile] | – | 67.4 | 35.1 | – | – | – | –
COc1ccc(CN2CCN(c3ccc(-c4cc(-c5cnn(C)c5)cn5ncc(Cl)c45)cn3)CC2)cn1 [Example 742, 3-chloro-4-(6-(4-((6-methoxypyridin-3-yl)methyl)piperazin-1-yl)pyridin-3-yl)-6-(1-methyl-1H-pyrazol-4-yl)pyrazolo[1,5-a]pyridine] | – | 38.5 | 37.3 | – | – | – | –
COc1ccc(CN2CCN(c3ccc(-c4cc(-c5cnn(C)c5)cn5ncc(C)c45)cn3)CC2)cn1 [Example 744, 4-(6-(4-((6-methoxypyridin-3-yl)methyl)piperazin-1-yl)pyridin-3-yl)-3-methyl-6-(1-methyl-1H-pyrazol-4-yl)pyrazolo[1,5-a]pyridine] | – | 66.3 | 46.2 | – | – | – | –
